Data as given in ChEMBL document CHEMBL1201862, “PubChem BioAssay data set” (2004).
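Dose response: 5 concentrations. Exposure: 48 h. Format: 96-well plates. Endpoint: linear interpolation; highest concentration if not reached. Here, GI50 denotes the concentration required for 50% inhibition of growth.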 Active and inactive are the calls of the source. Rule as the data show it: active = GI50 up to about 1.1 µM and inactive = higher.

How the values were obtained:
Experiment in all cases: NCI anticancer screen, dose series, 48 h
[1] = system: EKVX
[2] = system: CAKI-1
[3] = system: OVCAR-5
[4] = system: SF-539
[5] = system: SF-295
[6] = system: OVCAR-8
[7] = system: PC-3
[8] = system: RXF 393
[9] = system: OVCAR-4
[10] = system: MCF7
[11] = system: NCI/ADR-RES
[12] = system: SNB-19
[13] = system: HOP-62
[14] = system: NCI-H23
[15] = system: IGROV-1
[16] = system: U-251
[17] = system: UACC-257
[18] = system: DU-145
[19] = system: 786-0
[20] = system: ACHN

Measured: GI50

CCOP(=O)(OCC)/C(C#N)=C/c1ccnc2ccccc12
inactive: [1] 53.3 µM | [2] 24 µM | [3] 22.5 µM | [4] 26.5 µM | [5] 24.2 µM | [6] 15 µM | [7] 17.6 µM | [8] 23.2 µM | [9] 32.6 µM | [10] 18.8 µM | [11] 20.5 µM | [12] 21.4 µM | [13] 40.8 µM | [14] 24.3 µM | [15] 45 µM | [16] 51.8 µM | [17] 51.3 µM | [18] 34.8 µM | [19] 20.4 µM | [20] 43.6 µM

Nn1c(S)nnc1CCCCCCCCc1nnc(S)n1N
inactive: [1] > 100 µM | [2] > 100 µM | [3] > 100 µM | [4] > 100 µM | [5] > 100 µM | [6] > 100 µM | [7] > 100 µM | [8] > 100 µM | [9] > 100 µM | [10] > 100 µM | [11] > 100 µM | [12] > 100 µM | [13] > 100 µM | [14] > 100 µM | [15] > 100 µM | [16] > 100 µM | [17] > 100 µM | [18] > 100 µM | [19] > 100 µM | [20] > 100 µM

COc1ccc(/C=C2\OC(=O)C(Cl)=C2c2ccc(OC)c(Cl)c2)cc1
inactive: [1] 18.3 µM | [2] 21.9 µM | [3] 24.6 µM | [4] 15.2 µM | [5] 25.5 µM | [6] 21.1 µM | [7] 30.8 µM | [8] 12 µM | [9] 20.3 µM | [10] 19.9 µM | [11] 21.4 µM | [12] 34.1 µM | [13] 15.2 µM | [14] 20 µM | [15] 32 µM | [16] 29.4 µM | [17] 34.7 µM | [18] 36.3 µM | [19] 15.4 µM | [20] 30.4 µM

O=C(O)c1ccccc1Sc1ccccc1[N+](=O)[O-]
inactive: [1] > 100 µM | [2] > 100 µM | [3] > 100 µM | [4] > 100 µM | [5] > 100 µM | [6] > 100 µM | [7] > 100 µM | [8] > 100 µM | [9] > 100 µM | [10] > 100 µM | [11] > 100 µM | [12] > 100 µM | [13] > 100 µM | [14] > 100 µM | [15] > 100 µM | [16] > 100 µM | [17] > 100 µM | [18] > 100 µM | [19] > 100 µM | [20] > 100 µM

O=c1[nH]nc(-c2cccc(Br)c2)[nH]1
inactive: [1] 2.48 µM | [2] > 100 µM | [3] > 100 µM | [4] > 100 µM | [5] > 100 µM | [6] > 100 µM | [7] > 100 µM | [8] > 100 µM | [9] > 100 µM | [10] > 100 µM | [11] > 100 µM | [12] > 100 µM | [13] > 100 µM | [14] > 100 µM | [15] > 100 µM | [16] > 100 µM | [17] > 100 µM | [18] > 100 µM | [19] > 100 µM | [20] > 100 µM

COc1ccc(-c2cc(-c3ccc(Nc4ccnc5cc(Cl)ccc45)cc3)[nH]c(=O)c2C#N)c2ccccc12
inactive: [1] > 77.1 µM | [2] 9.46 µM | [3] 41.3 µM | [4] 1.82 µM | [5] 17.7 µM | [6] 2.3 µM | [7] 19.5 µM | [8] 5.05 µM | [9] 1.79 µM | [10] 1.92 µM | [11] > 100 µM | [12] 3.39 µM | [13] 14.5 µM | [14] 20.3 µM | [15] 5.26 µM | [16] 1.87 µM | [17] 24.9 µM | [18] 5.33 µM | [19] 3.4 µM | [20] 27.5 µM

CCN1C(=O)/C(=C/Nc2ccccc2)S/C1=N/Nc1nc(-c2ccc(O)c(O)c2)cs1
inactive: [1] 16.9 µM | [2] 31.8 µM | [3] > 100 µM | [4] 2.07 µM | [5] 4.46 µM | [6] 5.07 µM | [7] 33.9 µM | [8] 3.39 µM | [9] 40.8 µM | [10] 4 µM | [11] 3.61 µM | [12] 4.66 µM | [13] 6.22 µM | [14] 7.18 µM | [15] 32.6 µM | [16] 6.56 µM | [17] 6.44 µM | [18] 5.64 µM | [19] 23 µM | [20] 15.3 µM
